# “And” between values parts separate entries of the source, which are not always exact repeats. Equal entries are not always repeated. Toxic doses and inconclusive results are not listed.
# System: L1210 leukemia ip in BDF1 mice, survival T/C
# Experiment: NCI In Vivo Anticancer Drug Screen. Data for tumor model L1210 Leukemia (intraperitoneal) in B6D2F1 (BDF1) mice
# Settings: endpoint: mean survival time, higher = longer survival
# Summary of the method: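 Tumor was transplanted into mice, which were then dosed with test compound or vehicle alone. Survival was recorded for each group, and the treated figure was expressed relative to the control figure.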
# [1] = dose: 100.0 mg/kg/injection, schedule: Q01DX001 (ip), vehicle: saline
# [2] = dose: 100.0 mg/kg/injection, schedule: Q01DX001 (ip), vehicle: Klucel (hydroxypropylcellulose) (HPC)
# [3] = dose: 100.0 mg/kg/injection, schedule: Q04DX003 (ip), vehicle: Klucel (hydroxypropylcellulose) (HPC)
# [4] = dose: 200.0 mg/kg/injection, schedule: Q01DX001 (ip), vehicle: Klucel (hydroxypropylcellulose) (HPC)
# [5] = dose: 200.0 mg/kg/injection, schedule: Q04DX003 (ip), vehicle: Klucel (hydroxypropylcellulose) (HPC)
# [6] = dose: 400.0 mg/kg/injection, schedule: Q01DX001 (ip), vehicle: Klucel (hydroxypropylcellulose) (HPC)
# [7] = dose: 400.0 mg/kg/injection, schedule: Q04DX003 (ip), vehicle: Klucel (hydroxypropylcellulose) (HPC)
# [8] = dose: 100.0 mg/kg/injection, schedule: Q01DX009 (ip), vehicle: Klucel (hydroxypropylcellulose) (HPC)
# [9] = dose: 200.0 mg/kg/injection, schedule: Q01DX009 (ip), vehicle: Klucel (hydroxypropylcellulose) (HPC)
# [10] = dose: 400.0 mg/kg/injection, schedule: Q01DX009 (ip), vehicle: Klucel (hydroxypropylcellulose) (HPC)
# [11] = dose: 100.0 mg/kg/injection, schedule: Q04DX002 (ip), vehicle: other
# [12] = dose: 200.0 mg/kg/injection, schedule: Q04DX002 (ip), vehicle: other
# [13] = dose: 400.0 mg/kg/injection, schedule: Q04DX002 (ip), vehicle: other
smiles,measurement,setting,value
CS(=O)(=O)OCCNC[C@@H](O)[C@@H](O)CNCCOS(C)(=O)=O,T/C,"dose: 0.8 mg/kg/injection, schedule: Q01DX001 (ip), vehicle: saline",101 % of control
same,T/C,"dose: 1.4 mg/kg/injection, schedule: Q01DX001 (ip), vehicle: saline",112 % of control and 121 % of control
same,T/C,"dose: 2.3 mg/kg/injection, schedule: Q01DX001 (ip), vehicle: saline",112 % of control and 123 % of control
same,T/C,"dose: 6.5 mg/kg/injection, schedule: Q01DX001 (ip), vehicle: saline",122 % of control
same,T/C,"dose: 18.0 mg/kg/injection, schedule: Q01DX001 (ip), vehicle: saline",161 % of control
same,T/C,"dose: 30.0 mg/kg/injection, schedule: Q01DX001 (ip), vehicle: saline",151 % of control and 186 % of control
same,T/C,"dose: 50.0 mg/kg/injection, schedule: Q01DX001 (ip), vehicle: saline",207 % of control
same,T/C,[1],108 % of control
CC(=O)Oc1cc2c(cc1[N+](=O)[O-])OCO2,T/C,[2],104 % of control
same,T/C,[3],94 % of control
same,T/C,[4],94 % of control
same,T/C,[5],93 % of control
same,T/C,[6],98 % of control
same,T/C,[7],105 % of control
C=CCOCC(O)CN1CCC(C)CC1 (configuration not stated),T/C,"dose: 6.0 mg/kg/injection, schedule: Q04DX003 (ip), vehicle: Klucel (hydroxypropylcellulose) (HPC)",95 % of control
same,T/C,"dose: 12.0 mg/kg/injection, schedule: Q04DX003 (ip), vehicle: Klucel (hydroxypropylcellulose) (HPC)",95 % of control
same,T/C,"dose: 25.0 mg/kg/injection, schedule: Q04DX003 (ip), vehicle: Klucel (hydroxypropylcellulose) (HPC)",97 % of control
same,T/C,"dose: 50.0 mg/kg/injection, schedule: Q04DX003 (ip), vehicle: Klucel (hydroxypropylcellulose) (HPC)",98 % of control
same,T/C,[3],95 % of control
O=C1NC(=O)C2(CCCC2)N1,T/C,[1],102 % of control
same,T/C,"dose: 200.0 mg/kg/injection, schedule: Q01DX001 (ip), vehicle: saline",108 % of control
same,T/C,"dose: 400.0 mg/kg/injection, schedule: Q01DX001 (ip), vehicle: saline",102 % of control
CCC(=O)c1ccc(O)c(C)c1,T/C,"dose: 55.5 mg/kg/injection, schedule: Q01DX Z (ip), vehicle: methylcellulose (MC)",98 % of control
same,T/C,"dose: 83.3 mg/kg/injection, schedule: Q01DX Z (ip), vehicle: methylcellulose (MC)",96 % of control
same,T/C,"dose: 125.0 mg/kg/injection, schedule: Q01DX Z (ip), vehicle: methylcellulose (MC)",102 % of control
same,T/C,"dose: 187.5 mg/kg/injection, schedule: Q01DX Z (ip), vehicle: methylcellulose (MC)",103 % of control
CCOC(=O)CCCS,T/C,"dose: 75.0 mg/kg/injection, schedule: Q01DX001 (ip), vehicle: carboxymethylcellulose (CMC)",93 % of control
same,T/C,"dose: 150.0 mg/kg/injection, schedule: Q01DX001 (ip), vehicle: carboxymethylcellulose (CMC)",93 % of control
c1ccc(C2=NN(c3ccccc3)CC2)cc1,T/C,"dose: 100.0 mg/kg/injection, schedule: Q04DX002 (ip), vehicle: Klucel (hydroxypropylcellulose) (HPC)",106 % of control
same,T/C,"dose: 200.0 mg/kg/injection, schedule: Q04DX002 (ip), vehicle: Klucel (hydroxypropylcellulose) (HPC)",98 % of control
same,T/C,"dose: 400.0 mg/kg/injection, schedule: Q04DX002 (ip), vehicle: Klucel (hydroxypropylcellulose) (HPC)",106 % of control
O=C(O)c1ccc2c(=O)[nH][nH]c(=O)c2c1,T/C,"dose: 87.5 mg/kg/injection, schedule: Q01DX009 (ip), vehicle: Klucel (hydroxypropylcellulose) (HPC)",101 % of control
same,T/C,"dose: 175.0 mg/kg/injection, schedule: Q01DX009 (ip), vehicle: Klucel (hydroxypropylcellulose) (HPC)",96 % of control
same,T/C,"dose: 350.0 mg/kg/injection, schedule: Q01DX009 (ip), vehicle: Klucel (hydroxypropylcellulose) (HPC)",102 % of control
CC(=O)N(C(C)=O)C1=C(c2ccccc2)C(=O)c2ccccc21,T/C,[8],98 % of control
same,T/C,[3],96 % of control
same,T/C,[9],97 % of control
same,T/C,[5],105 % of control
same,T/C,[10],94 % of control
same,T/C,[7],107 % of control
CCN(CC)Cc1c(O)ccc2c3c(c(=O)oc12)CCCC3,T/C,"dose: 10.0 mg/kg/injection, schedule: Q01DX001 (ip), vehicle: carboxymethylcellulose (CMC)",103 % of control
same,T/C,"dose: 20.0 mg/kg/injection, schedule: Q01DX001 (ip), vehicle: carboxymethylcellulose (CMC)",97 % of control
same,T/C,"dose: 40.0 mg/kg/injection, schedule: Q01DX001 (ip), vehicle: carboxymethylcellulose (CMC)",94 % of control
same,T/C,"dose: 80.0 mg/kg/injection, schedule: Q01DX001 (ip), vehicle: carboxymethylcellulose (CMC)",96 % of control
CC(C)N=C(NC(C)C)N1CC1,T/C,"dose: 10.0 mg/kg/injection, schedule: Q01DX009 (ip), vehicle: saline",106 % of control
same,T/C,"dose: 20.0 mg/kg/injection, schedule: Q01DX001 (ip), vehicle: saline",104 % of control
same,T/C,"dose: 20.0 mg/kg/injection, schedule: Q01DX009 (ip), vehicle: saline",105 % of control
same,T/C,"dose: 40.0 mg/kg/injection, schedule: Q01DX001 (ip), vehicle: saline",104 % of control
same,T/C,"dose: 40.0 mg/kg/injection, schedule: Q01DX009 (ip), vehicle: saline",100 % of control
CC1(C)C2CCC(I)(C2)C1O (configuration not stated),T/C,"dose: 100.0 mg/kg/injection, schedule: Q01DX001 (ip), vehicle: saline with Tween-80",105 % of control
same,T/C,"dose: 200.0 mg/kg/injection, schedule: Q01DX001 (ip), vehicle: saline with Tween-80",100 % of control
same,T/C,"dose: 400.0 mg/kg/injection, schedule: Q01DX001 (ip), vehicle: saline with Tween-80",105 % of control
Clc1ccc2nc(CI)c(CI)nc2c1,T/C,"dose: 6.25 mg/kg/injection, schedule: Q01DX009 (ip), vehicle: acetone",102 % of control
same,T/C,"dose: 12.5 mg/kg/injection, schedule: Q01DX009 (ip), vehicle: acetone",102 % of control
same,T/C,"dose: 12.5 mg/kg/injection, schedule: Q04DX003 (ip), vehicle: acetone",104 % of control
same,T/C,"dose: 25.0 mg/kg/injection, schedule: Q04DX003 (ip), vehicle: acetone",96 % of control
O=[N+]([O-])C1CC(O)CCC1SSC1CCC(O)CC1[N+](=O)[O-] (configuration not stated),T/C,[11],106 % of control
same,T/C,[12],103 % of control
same,T/C,[13],98 % of control
O=C(NCc1ccccc1)C1C2C=CC(C2)C1C(=O)NCc1ccccc1 (configuration not stated),T/C,"dose: 100.0 mg/kg/injection, schedule: Q04DX003 (ip), vehicle: saline with Tween-80",96 % of control
same,T/C,"dose: 200.0 mg/kg/injection, schedule: Q04DX003 (ip), vehicle: saline with Tween-80",91 % of control
same,T/C,"dose: 400.0 mg/kg/injection, schedule: Q04DX003 (ip), vehicle: saline with Tween-80",91 % of control
CCOC(=O)C(C(=O)OCC)C1c2ccccc2C([N+](=O)[O-])c2ccccc21 (configuration not stated),T/C,[2],91 % of control
same,T/C,[8],96 % of control
same,T/C,[4],96 % of control
same,T/C,[9],89 % of control
same,T/C,[6],91 % of control
same,T/C,[10],103 % of control
O=C(COc1ccc(Cl)cc1Cl)OCCOCCOCCOCCOCCOCCOCCOCCOCCOCCOCCOCCOCCO,T/C,[8],101 % of control
same,T/C,[9],101 % of control
same,T/C,[10],98 % of control
O=c1n(-c2ccccc2)c(=O)n2n1C1/C=C\C=C/C2C2CCC21 (configuration not stated),T/C,"dose: 12.5 mg/kg/injection, schedule: Q01DX009 (ip), vehicle: saline with Tween-80",92 % of control
same,T/C,"dose: 12.5 mg/kg/injection, schedule: Q04DX003 (ip), vehicle: saline with Tween-80",100 % of control
same,T/C,"dose: 25.0 mg/kg/injection, schedule: Q01DX009 (ip), vehicle: saline with Tween-80",95 % of control
same,T/C,"dose: 25.0 mg/kg/injection, schedule: Q04DX003 (ip), vehicle: saline with Tween-80",95 % of control
same,T/C,"dose: 50.0 mg/kg/injection, schedule: Q04DX003 (ip), vehicle: saline with Tween-80",87 % of control
O=C(N1CCCCC1)N1CCCCC1,T/C,[11],105 % of control
same,T/C,[12],91 % of control
same,T/C,[13],88 % of control
CSc1nc(Cl)c2ncn(C3C=CC(O)C(CO)O3)c2n1 (configuration not stated),T/C,"dose: 100.0 mg/kg/injection, schedule: Q01DX005 (ip), vehicle: saline",95 % of control
same,T/C,"dose: 200.0 mg/kg/injection, schedule: Q01DX005 (ip), vehicle: saline",92 % of control
COc1ccc([N+](=O)[O-])cc1NC(=O)Nc1cccc(C(=O)O)c1,T/C,"dose: 50.0 mg/kg/injection, schedule: Q01DX009 (ip), vehicle: Klucel (hydroxypropylcellulose) (HPC)",101 % of control
same,T/C,[8],96 % of control
same,T/C,[9],86 % of control
CC(SCc1cc(=O)[nH]c(=O)[nH]1)C(=O)O (configuration not stated),T/C,"dose: 100.0 mg/kg/injection, schedule: Q04DX003 (ip), vehicle: saline",98 % of control
same,T/C,"dose: 200.0 mg/kg/injection, schedule: Q04DX003 (ip), vehicle: saline",98 % of control
same,T/C,"dose: 400.0 mg/kg/injection, schedule: Q04DX003 (ip), vehicle: saline",96 % of control

# — PubChem BioAssay AID248 (DTP/NCI, 2004)
